Data as given in publication PMC7259466 (bioRxiv, 2020).
Read-outs that look alike come from different tables or passages of the source.

Tests used:
[1] = system: Vero-E6 cells; experiment: Nuclei counts in autophagy assay in Vero-E6 cells; format: cell-based; settings: for cytotoxicity based on nuclei counts: highest concentrations (50 μM for all except for ROC-325 at 25 μM)
[2] = Cell; format: cell-based
[3] = system: Vero E6 cells; settings: for cell toxicity: Vero E6, up to 30 μM; for cytotoxic: at all concentrations
[4] = cited from earlier work; for Cmax: human plasma, clinically efficacious doses
[5] = in vitro; settings: African green monkey, CPE CC50, uninfected Vero E6, 72 h, Cell Titer-Glo
[6] = system: LC3B; experiment: LC3B immunostaining autophagy assay, average of four cell lines; format: cell-based; settings: for EC50: 16 h, read-out: Autophagy EC50
[7] = system: SARS-CoV-2; settings: similar CPE assay with SARS-CoV-2 in Vero-E6 cells; ref [61]; cited from earlier work
[8] = system: acidic organelles; experiment: LysoTracker Deep Red staining assay in Vero-E6 cells; format: cell-based; settings: Vero-E6, cell counts, highest concentration
[9] = system: LC3B; experiment: LC3B immunostaining autophagy assay in Huh-7.5 cells; format: cell-based, human
[10] = system: SARS-CoV-2; format: cell-based, SARS CoV-2 (USA_WA1/2020); settings: Vero-E6, up to 30 μM
[11] = system: LC3B; experiment: LC3B immunostaining autophagy assay in Vero-E6 cells; format: cell-based; settings: ~16 h; for LC3B spot counts: Vero-E6, 50 μM – 0.02 μM
[12] = system: Vero-E6 cells; settings: drug-repurposing screen in Vero-E6 cells; ref [61]; cited from earlier work
[13] = in monkey; ref [77]; cited from earlier work

Row | SMILES | cytotoxicity based on nuclei counts [1] | CC50 at 16 h [2] | cell toxicity [3] | cytotoxic [3] | CC50 [5] | EC50 [6] | IC50 [7] | activity against SARS-CoV-2 CPE [10] | LC3B spot counts [11] | CC50 [12] | also measured
1 | CCN(CCO)CCCC(C)Nc1ccnc2cc(Cl)ccc12 (centres unmarked) [Hydroxychloroquine, hydroxychloroquine] | not cytotoxic | > 50 µM | no associated cell toxicity | less than 50% | > 30 µM | 6.55 ± 6.67 µM | 9.21 µM |  |  |  | Cmax ([4]; ref [80]): 1.5 µM; T1/2 ([4]; ref [80]): ~40 days; absorption ([4]; ref [80]): rapid and complete absorption
2 | OC(c1cc(C(F)(F)F)nc2c(C(F)(F)F)cccc12)C1CCCCN1 (centres unmarked) [Mefloquine] | completely toxic | 18.4 ± 2.08 µM | cytotoxic at the highest concentrations |  |  |  | 7.11 µM | moderate levels of activity | ineffective | > 18.5 µM | toxicity in LysoTracker assay [8]: toxic at the highest concentration; cytotoxicity ([3]; at 15.0 to 30.0 μM): 100%; EC50 ([9]; Homo sapiens, Huh7.5, read-out: Autophagy EC50): 7.3 µM; LC3B spot counts ([9]; Huh-7.5): increased LC3B spot counts even at low concentrations; Cmax ([4]; ref [81]): 4.5 µM
3 | CN(C)CCCN1c2ccccc2CCc2ccc(Cl)cc21 [Clomipramine] | not cytotoxic | > 50 µM |  | less than 50% | > 30 µM |  |  | completely prevent SARS-CoV-2 CPE |  | > 30 µM | cytotoxicity ([3]; at 30.0 μM): less than 20%; Cmax ([4]; ref [76]): 0.29 µM; Vd ([4]; ref [76]): high; increasing LC3B ([6]; all cell lines except for Vero-E6): effective; submaximal increase of LC3B spot counts ([11]; Vero-E6, normalized to DMSO (0%) and CQ (100%)): 40%
4 | CCN(CC)CCCC(C)Nc1ccnc2cc(Cl)ccc12 (centres unmarked) [Chloroquine] | not cytotoxic |  | no associated cell toxicity | less than 50% | > 30 µM | 3.29 ± 1.86 µM | 42 µM |  |  |  | Vd ([4]; ref [78], [79]): 100 L/kg; bioavailable ([4]; ref [78], [79]): 75%
5 | CCC(CC)COC(=O)[C@H](C)N[P@](=O)(OC[C@H]1O[C@@](C#N)(c2ccc3c(N)ncnn23)[C@H](O)[C@@H]1O)Oc1ccccc1 [Remdesivir, remdesivir] |  |  | no apparent cytotoxicity |  |  |  |  |  |  |  | 
6 | CCN(CC)CCNc1ccc(CO)c2sc3ccccc3c(=O)c12 [Hycanthone] |  | 11.3 ± 2.73 µM | cytotoxic at the highest concentrations |  |  | 7.35 ± 4.7 µM |  | moderate levels of activity | maximal spot counts |  | cells killed ([1]; at 50 μM): approximately 60%; absorption [13]: well-absorbed; reduction of cell viability ([3]; at 30 μM): ~100%
